Results taken from patent US5776935A, “Pyrido-phtalazin diones and their use against neurological disorders associated with excitotoxicity and malfunctioning of glutamatergic neurotransmission” (Merz & Co. GmbH & Co., priority 1996, dated 1998).
Read-outs that look alike come from different tables or passages of the source.

How the values were obtained:
cortical neurones = experiment: Excitotoxicity in vitro (NMDA, LDH efflux); type: cell-based, rat; conditions: for IC50: Rattus norvegicus, Cortical neurone, 0.5 mM NMDA/1 μM glycine, 24 h, read-out: Cytotoxicity in vitro IC50; for neuroprotection in vitro: low μM concentrations
Method: Isolation of cortical neurones was similar to that described for patch clamp recordings except for the use of foetal rats at 17-19 days gestation. Neurones were plated in 24-multiwell (Greiner) at a density of 300,000 cells/well coated with poly-D-lysine 0.025 mg/ml. Cells were cultured in Dulbecco's modified essential medium (DMEM, GIBCO) supplemented with 10% heat inactivated foetal calf serum (GIBCO). Cultures were maintained at 37° C. at 5% CO2. The medium was changed first after one week and then every 3 days by replacing half of the medium with fresh medium. Cultures aged 17 days were used for experiments.
Exposure to EAA was performed in serum-free MEM-N2 medium (Bottenstein 1979) containing 0.5 mM NMDA/1 μM glycine and the drug to be tested. Cells were pre-incubated with drugs and 1 μM glycine for 15 minutes before addition of NMDA. After 24 h the cytotoxic effect was morphologically examined under a phase contrast microscope and biochemically quantitified by measuring the efflux of LDH.
The activity of LDH was determined in the supernatant after 24 h according to the method of Wroblewski and La Due (1955). Briefly, 0.1 ml of the supernatant was added to 0.9 ml sodium-phosphate buffer (pH=7.5) containing sodium pyruvate (22.7 mM) and NADH (0.8 mg/10 ml) at room temperature. The conversion of pyruvate to lactate was recorded at 340 nm over 10 minutes in a Kontron Spectrophotometer.

[1] = In vivo systemic and / or CNS availability
organic acid transport = experiment: Duration of anticonvulsive action with and without probenecid; type: in vivo, mouse; conditions: listed as 2/514
Method: To assess NMDA receptor antagonistic properties of the tested agents by assessing anticonvulsive effects. Additionally the role of organic acid transporters in the elimination from the brain of tested agents was assessed by using an inhibitor, Probenicid, on the duration of anticonvulsive activity.
Male albino Swiss mice (19-21 g) housed 10-15 per cage were used for the NMDA lethality test (Leander et al., 1988). For pentylenetetrazol (PTZ)-induced convulsions male albino Swiss mice (25-34 g.) housed 40 per cage (58×38×20 cm) were used while in the maximal electroshock (MES) and motor impairment tests NMR female mice (18-28 g) housed 5 per cage were employed. All animals were kept with water and food ad libittum under a 12-h light-dark cycle (light on at 6 a.m.), and at a controlled temperature (20°±0.5° C.). All experiments were performed between 10 a.m. and 5 p.m. Tested agents were injected 15 min. i.p before the induction of convulsions if not stated otherwise (see below). Mrz 2/502 was dissolved in saline added with NaOH. Most other agents were dissolved in the following solution: 0.606 g Tris; 5.0 g. glucose; 0.5 g. Tween 80; and 95 ml water. The choline and tetramethylammonium salts were dissolved in distilled water.
MES (100 Hz, 0.5 sec shock duration, 50 mA shock intensity, 0.9 ms impulse duration, Ugo Basile) was applied through corneal electrodes. The presence of tonic convulsions was scored (tonic extension of hind paws with minimum angle to the body of 90°). In an additional experiment mice were injected with Probenicid (200 mg/kg) 30 min before administration of the tested agents to assess the role of organic acid transport in elimination (duration of action). The aim was to obtain ED50 s for all parameters scored using the Litchfield Wilcoxon (1949) test for quantal dose responses.
Moreover it seems that choline salts have a longer duration of action. Probenecid injection prolonged considerably the duration of anticonvulsive action of all agents tested. For example the half lives of 2/514 and 2/570 were around 40 and 80 minutes respectively in the absence of probenicid. In the presence of probenicid the half lives were prolonged to around 180 and 210 minutes respectively. Thus, it seems that organic acids transport in the choroid plexus out of the brain plays an important role in the short duration of action of the compounds tested..

AMPA receptor = experiment: Patch clamp, inward currents to AMPA in cultured superior colliculus neurones; type: cell-based, rat; conditions: AMPA 100 μM
Method: Cells were mechanically dissociated in 0.05% DNAase / 0.3% ovomucoid (Sigma) following a 15 minute pre-incubation with 0.66% trypsin / 0.1% DNAase (Sigma). The dissociated cells were then centrifuged at 18G for 10 minutes, resuspended in minimum essential medium (Gibco) and plated at a density of 200,000 cells cm onto poly-L-lysine (Sigma)-precoated plastic petri dishes (Falcon). The cells were nourished with NaHCO3 /HEPES-buffered minimum essential medium supplemented with 5% foetal calf serum and 5% horse serum (Gibco) and incubated at 37° C. with 5%CO2 at 95% humidity. The medium was exchanged completely following inhibition of further glial mitosis with cytosine-β-D-arabinofuranoside (20 μM Sigma) after about 7 days in vitro. Thereafter the medium was exchanged partially twice weekly. […] Moreover, the relatively small neurones (soma 15-20 μm .phi.) are ideally suited to minimise problems of buffered diffusion for concentration clamp experiments.
Patch clamp recordings were made from these neurones with polished glass electrodes (4-6 m.OMEGA.) in the whole cell mode at room temperature (20°-22° C.) with the aid of an EPC-7 amplifier (List). Test substances were applied by switching channels of a custom made fast superfusion system with a common outflow (10-20 ms exchange times). The contents of the intracellular solution were as follows (mM): CsCl (120), TEACl (20), EGTA (10), MgCl2 (1), CaCl2 (0.2), glucose (10), ATP (2), cAMP (0.25); pH was adjusted to 7.3 with CsOH or HCl. The extracellular solutions had the following basic composition (mM): NaCl (140), KCl (3), CaCl2 (0.2), glucose (10), HEPES (10), sucrose (4.5), tetrodotoxin (TTX 3*10-4). For most experiments glycine (1 μM) was present in all solutions. Experiments to test the glycine-dependence of the tricyclic "pyrido-phtalazin diones" were performed in the continuous presence of increasing concentrations of glycine (1-10 μM).
In contrast, three of these potent glycine, antagonists were only very weak antagonists of inward currents to AMPA (100 μM). […] This profile of action, although very weak, is typical for competitive AMPA receptor antagonists which preferentially block the peak non-desensitised state, low affinity state of the receptor (see Parsons et al., 1994).

[2] = peak currents, read-out: IC50 against peak AMPA induced currents
[3] = peak currents, read-out: Peak AMPA IC50
[4] = plateau currents, read-out: Plateau AMPA IC50

O=c1[nH][nH]c(=O)c2nc3ccc(Cl)cc3cc12 [Mrz 2/501]
IC50 (cortical neurones): < 5 µM | neuroprotection in vitro (cortical neurones): effective neuroprotectants

O=c1[nH]nc(O)c2c1cc1cc(Br)ccc1[n+]2[O-] [Mrz 2/514, 8-bromo-4-hydroxy-1-oxo-1,2-dihydropyridazino[4,5-b]-quinoline 5-oxide]
in vivo systemic and / or CNS availability versus associated class I compounds [1]: much better | half life of anticonvulsive action (organic acid transport; absence of probenecid): around 40 minutes | half life of anticonvulsive action (organic acid transport; presence of probenecid 200 mg/kg, 30 min before): around 180 minutes | IC50 (AMPA receptor; [2]): 73 µM | IC50 (AMPA receptor; [3]): 72.7 µM | IC50 (AMPA receptor; plateau currents, listed as 514, read-out: Plateau AMPA IC50): 307 µM | IC50 (AMPA receptor; [4]): > 100 µM

O=c1[nH]nc(O)c2c1cc1cc(F)ccc1[n+]2[O-] [Mrz 2/516, 8-fluoro-4-hydroxy-1-oxo-1,2-dihydropyridazino[4,5-b]-quinoline 5-oxide]
in vivo systemic and / or CNS availability versus associated class I compounds [1]: much better | IC50 (AMPA receptor; [2]): 18 µM | IC50 (AMPA receptor; [3]): 17.6 µM | IC50 (AMPA receptor; [4]): > 100 µM

O=c1[nH]nc(O)c2c1cc1cc(Cl)ccc1[n+]2[O-] [Mrz 2/502, 8-chloro-4-hydroxy-1-oxo-1,2-dihydropyridazino[4,5-b]-quinoline 5-oxide]
IC50 (AMPA receptor; [2]): 25 µM | IC50 (AMPA receptor; [3]): 25 µM | IC50 (AMPA receptor; plateau currents, listed as 502, read-out: Plateau AMPA IC50): 150 µM | IC50 (AMPA receptor; [4]): > 100 µM | IC50 (cortical neurones): < 5 µM | neuroprotection in vitro (cortical neurones): effective neuroprotectants

O=c1[nH][nH]c(=O)c2nc3ccc(Br)cc3cc12 [Mrz 2/503]
IC50 (cortical neurones): > 20 µM
